Reference: PMC3967244 (Clinical cancer research : an official journal of the …, 2013)
Entries after “also recorded” stand apart in the source; their conditions may differ. Where two headings read alike, the source gives them in different places. Marks after values point to notes of the source that are not given here.

Experiments:
solid tumors = assay: Efficacy evaluation, objective disease response by RECIST v.1; format: in vivo, human
[1] = test system: acetylated histone H3 in patient PBMCs; assay: Histone acetylation in peripheral blood mononuclear cells; format: in vivo, human
[2] = test system: radioactive iodine uptake in refractory thyroid cancer; assay: Radiolabeled sodium iodide; format: in vivo, human; conditions: six of eleven patients with thyroid cancer
[3] = test system: ST segment and T wave changes; assay: ECG evaluation, graded ST segment and T wave changes; format: in vivo, human
[4] = test system: patients with solid tumors; conditions: in vivo
[5] = test system: cutaneous T-cell lymphoma (CTCL); conditions: two Phase II trials, 167 patients with CTCL; cited from earlier work
[6] = test system: peripheral T-cell lymphoma (PTCL); conditions: two Phase II trials in PTCL; cited from earlier work
[7] = test system: histone acetylation in PBMCs; conditions: day 1, 8 and 15 schedule, four hours; cited from earlier work
[8] = test system: RAI avidity of tumor tissue; conditions: cited from earlier work
[9] = test system: differentiated and anaplastic thyroid cancer cell lines; conditions: in vitro, cited from earlier work
[10] = Plasma pharmacokinetics by LC/MS
[11] = test system: patients with solid tumors; assay: Phase I toxicity evaluation and dose escalation; conditions: four-hour infusion on days 1, 3 and 5 of a 21-day cycle
[12] = 27 of 28 patients, days 1, 3, and 5 of cycle 1

C/C=C1\NC(=O)[C@H]2CSSCC/C=C/[C@H](CC(=O)N[C@H](C(C)C)C(=O)N2)OC(=O)[C@H](C(C)C)NC1=O [romidepsin, Romidepsin]
RECIST-defined objective response (solid tumors; 28 patients with solid tumors, all dose levels): No RECIST-defined objective responses; also recorded: no patient met criteria for RECIST-defined objective response | Patients with stable disease (solid tumors; of 28 patients, minimum of six cycles (18 weeks)): nine | Range of duration of stable disease, thyroid cancer (solid tumors; six patients with thyroid cancer): 26–112 weeks | Median increase in histone acetylation over baseline ([1]; 4h time-point, 9.9 mg/m^2): 3 fold | Increase in histone acetylation in PBMCs ([1]; 4h time-point, dose of 3.3 mg/m^2 or higher): ≥ 2 fold | Accumulation in acetylation over the 5 days of treatment ([1]; days 1, 3, 5): no accumulation in acetylation | Patients with no measurable increase in AcH3 ([1]; dose level 1 or 2): Five of six | Apparent threshold dose for histone acetylation in PBMCs ([1]; fold-increase in acetylation over pre-dose levels by cohort): 3.3 mg/m^2 | RAI uptake on follow-up RAI scans [2]: did not detect meaningful increases; also recorded: None demonstrated significant uptake; also recorded: did not demonstrate a significant increase in RAI uptake | Patients with Grade 2 ST and T wave changes ([3]; 24-hour timepoint, dose level 5 (7 mg/m^2) and onward): over half of patients | Grade 1 ST and T wave changes ([3]; by dose level): noted from the first dose level onward | Grade 2 ST and T wave changes ([3]; dose levels above 5 mg/m^2): observed frequently | Patients requiring dose reduction ([4]; human): 7 of 9 | Anorexia ([4]; human, 21 day): 4 # pts (%) | Grade 4 toxicities ([4]; human, 21 day): none in cycle 1 | Hypocalcemia ([4]; human, 21 day): 5 (18%) # pts (%) | Nausea ([4]; human, 21 day): 3 # pts (%) | Recommended phase II dose (RP2D) ([4]; human, 21 day): 7 mg/m^2 | Vomiting ([4]; human, 21 day): 2 # pts (%) | Vomiting ([4]; human, 21 days): 9 (32%) # pts (%) | Febrile neutropenia [4]: no episodes of febrile neutropenia | Grade 3 nausea and vomiting at dose level 4 [4]: not considered dose-limiting | Overall response rate (ORR) [5]: 34–35% | ORR [6]: 25–38% | Median increase in histone acetylation in PBMCs [7]: 3 fold | Patients with increase in RAI avidity ([8]; patients scanned following romidepsin): 2 of 16 | Expression of thyroglobulin and NIS ([9]; nontoxic doses for 48 – 72 hours): induced expression | Radioactive iodine uptake [9]: increased radioactive iodine uptake | Dose dependence of CMAX and AUCLAST ([10]; 1 to 9 mg/m^2): linear pharmacokinetics | Inter-day patient variability (%CV) for AUCLAST [10, 12]: 2–59% | Inter-day patient variability (%CV) for CMAX [10, 12]: 5–68% | Clearance ([10]; all dose levels): rapid clearance | Plasma romidepsin concentration 14 hours after completing the infusion ([10]; most patients, lower limit of quantitation 2 ng/ml): below the lower limit of quantitation | Dose identified as tolerable [11]: 7 mg/m^2

O=C(CCCCCCC(=O)Nc1ccccc1)NO [vorinostat]
RAI in tumor tissue ([8]; one patient): increased
